Values after ≈ are worked out from the molar mass of the structure shown. Read-outs that look alike come from different tables or passages of the source.
What was measured:
Escherichia coli Vogel [1] = assay: in vitro antibacterial activity, serial dilution (MIC); type: cell-based; details: 18-20 hours static incubation, read-out: Minimal Inhibitory Concentration (MIC)
Procedure: (§1) The in vitro antibacterial activity of the compounds of the invention was determined by conventional serial dilution procedures. Bacterial cultures were grown in tryptose phosphate broth or brain heart infusion broth (containing heat-inactivated normal horse serum for tests with S. pyogenes) overnight at 37° C. and subsequently diluted in double strength broth to provide bacterial inocula of about 2×10^5 cells/ml. Aqueous solutions of the compounds of the invention were prepared by dissolving the free acid form in 0.5N sodium hydroxide. The solutions were diluted with sterile distilled water to 1000 mcg/ml of compound in terms of the free acid. Serial two-fold dilutions of the compound stock solutions were prepared in water and 0.5 ml of each dilution was transferred to sets of tubes, one set for each bacterial inoculum.

[2] = test system: Klebsiella pneumoniae 39645; assay: as above; type: cell-based; details: 18-20 hours static incubation, read-out: Minimal Inhibitory Concentration (MIC)
Procedure: as §1

Proteus mirabilis MGH-1 = assay: as above; type: cell-based; details: MGH1, 18-20 hours static incubation, read-out: Minimal Inhibitory Concentration (MIC)
Procedure: as §1

Proteus vulgaris 9920 = assay: as above; type: cell-based; details: 18-20 hours static incubation, read-out: Minimal Inhibitory Concentration (MIC)
Procedure: as §1

[3] = test system: Pseudomonas aeruginosa MGH-2; assay: as above; type: cell-based; details: MGH2, 18-20 hours static incubation, read-out: Minimal Inhibitory Concentration (MIC)
Procedure: as §1

[4] = test system: Streptococcus pyogenes C203; assay: as above; type: cell-based; details: 18-20 hours static incubation, read-out: Minimal Inhibitory Concentration (MIC)
Procedure: as §1

Escherichia coli Vogel [5] = assay: in vivo antibacterial activity in mice infected with E. coli (PD50); set-up: species or system mouse (female) infected with Escherichia coli; details: 168 h
Procedure: (§2) The in vivo antibacterial activity of the compounds of the invention was determined in female mice, 18-20 grams each, by the following procedure:
(§3) Aqueous solutions of the compounds to be tested were prepared by dissolving the free acid form in dilute sodium hydroxide and diluting the solution with distilled water to be desired volume.
(§4) Cultures of Escherichia coli Vogel prepared in brain heart infusion broth, cultures of Klebsiella pneumoniae 39645 grown in tryptose phosphate broth with 5% rabbit serum diluted in the same broth and cultures of Pseudomonas aeruginosa MGH-2 grown on brain heart infusion agar and suspended in physiological saline, were used to infect the mice as follows:
Mice infected with E. coli were medicated once (0.5 ml) one-half hour post infection, the test compound being administered by either the subcutaneous (s.c.) or oral (p.o.) route. Deaths were recorded daily for seven days.
(§5) Groups of ten animals each for four or five dose levels were thus treated and the number of survivors in each group recorded. The fifty percent protective dose values (PD50) were then calculated.

[6] = test system: Klebsiella pneumoniae 39645; assay: in vivo antibacterial activity in mice infected with K. pneumoniae (PD50); set-up: species or system mouse (female) infected with Klebsiella pneumoniae
Procedure: as §2, §3, §4
K. pneumoniae: mice were inoculated intramuscularly in the right hind leg with 0.2 ml of the bacterial test inoculum (2.05×10^4 cells/ml).
Mice infected with K. pneumoniae were medicated at the following times: seventeen hours and one hour preinfection, six hours postinfection and twice a day for the next three days. The test compound was administered by both subcutaneous (0.2 ml) and oral (0.5 ml) routes. Deaths were recorded daily for fourteen days.
as §5

[7] = test system: Staphylococcus aureus Smith; assay: in vitro antibacterial activity, serial dilution (MIC); type: cell-based; details: 18-20 hours static incubation, read-out: Minimal Inhibitory Concentration (MIC)
Procedure: as §1

[8] = sc, mouse, E. coli, s.c., once one-half hour post infection, 7 days, read-out: Protective Dose (PD50)
[9] = Klebsiella pneumoniae, 39645, sc, 336 h, mouse, K. pneumoniae, s.c., pre- and postinfection, 14 days, read-out: Protective Dose (PD50)

| SMILES | MIC (Escherichia coli Vogel [1]) [µg/mL] | MIC [2] [µg/mL] | MIC (Proteus mirabilis MGH-1) [µg/mL] | MIC (Proteus vulgaris 9920) [µg/mL] | MIC [3] [µg/mL] | MIC [4] [µg/mL] | ED50 (Escherichia coli Vogel [5]; [8]) [mg/kg] | ED50 [6, 9] [mg/kg] | MIC [7] [µg/mL] | ED50 (Escherichia coli Vogel [5]; sc, read-out: Protective Dose (PD50)) [mg/kg] | ED50 ([6]; Klebsiella pneumoniae, 39645, sc, 336 h, read-out: Protective Dose (PD50)) [mg/kg] | ED50 (Escherichia coli Vogel [5]; mouse, E. coli, route not stated, read-out: fifty percent protective dose) [mg/kg] | ED50 ([6]; Klebsiella pneumoniae, 39645, 336 h, mouse, K. pneum., route not stated, read-out: fifty percent protective dose) [mg/kg] | ED50 ([6]; Klebsiella pneumoniae, 39645, po, 336 h, mouse, K. pneumoniae, p.o., pre- and postinfection, 14 days, read-out: Protective Dose (PD50)) [mg/kg] |
| --- | --- | --- | --- | --- | --- | --- | --- | --- | --- | --- | --- | --- | --- | --- |
| CN1CCN(c2cc3c(cc2F)c(=O)c(C(=O)O)cn3N(C)C)CC1 [Example 7, 6-Fluoro-1-dimethylamino-1,4-dihydro-7-(4-methyl-1-piperazinyl)-4-oxo-3-quinolinecarboxylic acid] | 0.5 (≈ 1.44 µM) | 2 (≈ 5.74 µM) | 2 (≈ 5.74 µM) | 0.12 (≈ 0.344 µM) | 2 (≈ 5.74 µM) | 31.3 (≈ 89.8 µM) | 1.66 | 29 |  |  |  |  |  |  |
| Nn1cc(C(=O)O)c(=O)c2cc(F)c(N3CCNCC3)cc21 [Example 2, 1-Amino-6-fluoro-1,4-dihydro-4-oxo-7-(1-piperazinyl)-3-quinolinecarboxylic acid] |  |  |  |  | 62.5 (≈ 204 µM) |  |  |  | 31.3 (≈ 102 µM) | > 200 | > 200 |  |  |  |
| CCCNn1cc(C(=O)O)c(=O)c2cc(F)c(Cl)cc21 [7-Chloro-6-fluoro-1,4-dihydro-4-oxo-1-propylamino-3-quinolinecarboxylic acid] | 15.6 (≈ 52.2 µM) | 31.3 (≈ 105 µM) |  | 3.9 (≈ 13.1 µM) |  | 15.6 (≈ 52.2 µM) |  |  | 15.6 (≈ 52.2 µM) |  |  |  |  |  |
| CNn1cc(C(=O)O)c(=O)c2cc(F)c(N3CC[N+](C)([O-])CC3)cc21 [4'-oxide] | 16 (≈ 45.7 µM) | 32 (≈ 91.3 µM) | 32 (≈ 91.3 µM) |  |  |  |  |  |  |  |  |  |  |  |
| CN1CCN(c2cc3c(cc2F)c(=O)c(C(=O)O)cn3N(C)C=O)CC1 [Example 23, 6-Fluoro-1-(N-formylmethylamino)-1,4-dihydro-7-(4-methyl-1-piperazinyl)-4-oxo-3-quinolinecarboxylic acid] | 1.95 (≈ 5.38 µM) | 1.95 (≈ 5.38 µM) |  | 1 (≈ 2.76 µM) |  |  | 10.4 | > 200 | 15.6 (≈ 43.1 µM) |  |  |  |  |  |
| CCNn1cc(C(=O)O)c(=O)c2cc(F)c(N3CCN(C)CC3)cc21 [Example 5, 1-Ethylamino-6-fluoro-1,4-dihydro-7-(4-methyl-1-piperazinyl)-4-oxo-3-quinolinecarboxylic acid] | 0.5 (≈ 1.44 µM) | 0.5 (≈ 1.44 µM) |  | 0.25 (≈ 0.718 µM) |  | 31.3 (≈ 89.8 µM) | 4.1 | 90 |  |  |  |  |  |  |
| CNn1cc(C(=O)O)c(=O)c2cc(F)c(N3CCSCC3)cc21 [Example 21, 6-Fluoro-1,4-dihydro-1-methylamino-4-oxo-7-(4-thiomorpholinyl)-3-quinolinecarboxylic acid] | 0.5 (≈ 1.48 µM) | 0.5 (≈ 1.48 µM) | 2 (≈ 5.93 µM) |  | 4 (≈ 11.9 µM) | > 8 | > 200 |  | 0.5 (≈ 1.48 µM) |  |  |  |  |  |
| CCCN1CCN(c2cc3c(cc2F)c(=O)c(C(=O)O)cn3NC)CC1 [Example 11, 6-Fluoro-1,4-dihydro-1-methylamino-4-oxo-7-(4-propyl-1-piperazinyl)-3-quinolinecarboxylic acid] | 0.25 (≈ 0.69 µM) | 0.5 (≈ 1.38 µM) | 1 (≈ 2.76 µM) | 0.25 (≈ 0.69 µM) |  |  | 14.8 | 81.5 | 1.95 (≈ 5.38 µM) |  |  |  |  |  |
| CN1CCN(c2cc3c(cc2F)c(=O)c(C(=O)O)cn3N)CC1 [Example 3, 1-Amino-6-fluoro-1,4-dihydro-4-oxo-7-(4-methyl-1-piperazinyl)-3-quinolinecarboxylic acid] | 2 (≈ 6.24 µM) | 2 (≈ 6.24 µM) | 2 (≈ 6.24 µM) | 1 (≈ 3.12 µM) | 15.6 (≈ 48.7 µM) | 62.5 (≈ 195 µM) | 3.13 | 30.5 |  |  |  |  |  |  |
| CNn1cc(C(=O)O)c(=O)c2cc(F)c(N3CCCC(O)C3)cc21 (stereo not drawn) [Example 18, 6-Fluoro-1,4-dihydro-7-(3-hydroxy-1-piperidinyl)-1-methylamino-4-oxo-3-quinolinecarboxylic acid] |  |  |  | 0.25 (≈ 0.746 µM) | 31.3 (≈ 93.3 µM) | 15.6 (≈ 46.5 µM) | 38 | > 200 | 1.95 (≈ 5.82 µM) |  |  |  |  |  |
| CNn1cc(C(=O)O)c(=O)c2cc(F)c(Cl)cc21 [7-Chloro-6-fluoro-1,4-dihydro-1-methylamino-4-oxo-3-quinolinecarboxylic acid] | 1 (≈ 3.69 µM) | 1.95 (≈ 7.2 µM) | 1 (≈ 3.69 µM) |  |  |  |  |  |  |  |  | 56 | 186 |  |
| CCOC(=O)c1cn(NC)c2cc(N3CCN(C)CC3)c(F)cc2c1=O [Example 9, Ethyl 6-fluoro-1,4-dihydro-1-methylamino-7-(4-methyl-1-piperazinyl)-4-oxo-3-quinolinecarboxylate] | 62.5 (≈ 172 µM) | 62.5 (≈ 172 µM) | 12.5 (≈ 34.5 µM) | 31.3 (≈ 86.4 µM) |  |  | 4.4 | > 200 |  |  |  |  |  |  |
| C=CCNn1cc(C(=O)O)c(=O)c2cc(F)c(N3CCN(C)CC3)cc21 [Example 12, 6-Fluoro-1,4-dihydro-7-(4-methyl-1-piperazinyl)-4-oxo-1-(2-propenylamino)-3-quinolinecarboxylic acid] | 1 (≈ 2.77 µM) | 1.95 (≈ 5.41 µM) |  | 1 (≈ 2.77 µM) | 15.6 (≈ 43.3 µM) | 62.5 (≈ 173 µM) | 18.9 | 141 |  |  |  |  |  |  |
| CNn1cc(C(=O)O)c(=O)c2cc(F)c(N3CCC(O)CC3)cc21 [Example 17, 6-Fluoro-1,4-dihydro-7-(4-hydroxy-1-piperidinyl)-1-methylamino-4-oxo-3-quinolinecarboxylic acid] | 1.95 (≈ 5.82 µM) |  |  | 0.125 (≈ 0.373 µM) |  | 31.3 (≈ 93.3 µM) | 12.5 | 200 | 1.95 (≈ 5.82 µM) |  |  |  |  |  |
| CNn1cc(C(=O)O)c(=O)c2cc(F)c(N3CCCC3)cc21 [Example 16, 6-Fluoro-1,4-dihydro-1-methylamino-4-oxo-7-(1-pyrrolidinyl)-3-quinolinecarboxylic acid] | 1 (≈ 3.28 µM) |  |  | 0.5 (≈ 1.64 µM) |  |  | > 200 | > 200 | 0.5 (≈ 1.64 µM) |  |  |  |  |  |
| CNn1cc(C(=O)O)c(=O)c2cc(F)c(N3CCCNCC3)cc21 [Example 19, 6-Fluoro-7-(hexahydro-1H-1,4-diazapin-1-yl)-1,4-dihydro-1-methylamino-4-oxo-3-quinolinecarboxylic acid] |  | 15.6 (≈ 46.7 µM) | 1.95 (≈ 5.83 µM) | 1 (≈ 2.99 µM) |  | 31.3 (≈ 93.6 µM) | 2.5 | > 50 |  |  |  |  |  |  |
| CNn1cc(C(=O)O)c(=O)c2cc(F)c(N3CCOCC3)cc21 [Example 13, 6-Fluoro-1,4-dihydro-1-methylamino-7-(4-morpholinyl)-4-oxo-3-quinolinecarboxylic acid] | 0.5 (≈ 1.56 µM) | 1.95 (≈ 6.07 µM) |  | 0.125 (≈ 0.389 µM) | 15.6 (≈ 48.6 µM) | 15.6 (≈ 48.6 µM) | 16.3 | 200 | 1 (≈ 3.11 µM) |  |  |  |  |  |
| CNn1cc(C(=O)O)c(=O)c2cc(F)c(N3CCN(C(C)=O)CC3)cc21 [Example 14, 7-(4-Acetyl-1-piperazinyl)-6-fluoro-1,4-dihydro-1-methylamino-4-oxo-3-quinolinecarboxylic acid] | 15.6 (≈ 43.1 µM) |  | 15.6 (≈ 43.1 µM) | 1.95 (≈ 5.38 µM) | 62.5 (≈ 172 µM) | 31.3 (≈ 86.4 µM) | 100 | 100 |  |  |  |  |  |  |
| CCN1CCN(c2cc3c(cc2F)c(=O)c(C(=O)O)cn3NC)CC1 [Example 8, 7-(4-Ethyl-1-piperazinyl)-6-fluoro-1,4-dihydro-1-methylamino-4-oxo-3-quinolinecarboxylic acid] | 0.5 (≈ 1.44 µM) | 0.5 (≈ 1.44 µM) | 1 (≈ 2.87 µM) | 0.25 (≈ 0.718 µM) | 2 (≈ 5.74 µM) |  | 1.4 | 15.1 | 1 (≈ 2.87 µM) |  |  |  |  |  |
| CNn1cc(C(=O)O)c(=O)c2cc(F)c(N3CCCCC3)cc21 [Example 15, 6-Fluoro-1,4-dihydro-1-methylamino-4-oxo-7-(1-piperidinyl)-3-quinolinecarboxylic acid] |  |  |  | 0.5 (≈ 1.57 µM) |  |  | > 200 | > 200 | 1.95 (≈ 6.11 µM) |  |  |  |  |  |
| CNn1cc(C(=O)O)c(=O)c2cc(F)c(N3CCN(C)CC3)cc21 [Example 1, 6-Fluoro-1,4-dihydro-1-methylamino-7-(4-methyl-1-piperazinyl)-4-oxo-3-quinolinecarboxylic acid] | 0.25 (≈ 0.748 µM) | 0.25 (≈ 0.748 µM) | 0.5 (≈ 1.5 µM) | 0.125 (≈ 0.374 µM) | 1 (≈ 2.99 µM) |  |  | 8.8 |  |  |  |  |  | 10.6 |

Source: patent US4499091A, “1-Amino (or substituted amino)-1,4-dihydro-4-oxo-6-fluoro-7-heterylquinoline-3-carboxylic acids and their use as antibacterial agents” (Sterling Drug Inc., priority 1983, dated 1985)
